Reference: patent US20120214193A1, “METHOD FOR MEASUREMENT OF FLUORESCENCE INTENSITY OF VOLTAGE-SENSITIVE FLUORESCENT DYE” (Keio University, priority 2009, published 2012)

Test system: human ES cell derived cardiomyocytes
Experiment: Activity potential measurement of cardiomyocytes treated with a potential-sensitive fluorochrome
Type: cell-based
Conditions: 18.75 μM vitamin E and/or 18.75 μM cholesterol
Excerpt: Human embryonic stem cells (ES cells) were obtained from Stem Cell Research Center, the Institute for Frontier Medical Sciences, Kyoto University (Embryonic Stem Cell Center sponsored by the National Bioresource Project). Human induced pluripotent stem cells (iPS cells) were obtained from the Center for iPS Cell Research and Application, Institute for Integrated Cell-Material Sciences, Kyoto University. […] To prepare the MEF cells, the fetus of an ICR mouse at day 14 of gestation (CLEA Japan, Inc.) was beheaded and disemboweled and thereafter disintegrated into discrete cells by the method described in WO 2006/022377. […] In other experiments, the cultured cells were treated with a potential-sensitive fluorochrome and 18.75 μM of vitamin E and/or 18.75 μM of cholesterol and then the temporal change in fluorescent intensity was measured. […]

Compound	detection of activity potential waveforms from single cardiomyocytes (FIG. 5)
CC(C)CCC[C@@H](C)[C@H]1CC[C@H]2[C@@H]3CC=C4C[C@@H](O)CC[C@]4(C)[C@H]3CC[C@]12C [cholesterol]	became observable
vitamin E	became observable
